The record followed here is paper PMC6522981, “Structure-based design generated novel hydroxamic acid based preferential HDAC6 lead inhibitor with on-target cytotoxic activity against primary choroid plexus carcinoma” (Journal of Enzyme Inhibition and Medicinal Chemistry, 2019).

In one assay the target is T1, human HDAC8 (Homo sapiens, UniProt Q9BY41).
T1 construct: purchased BPS Bioscience 50008
T1 sequence (Q9BY41 1-377): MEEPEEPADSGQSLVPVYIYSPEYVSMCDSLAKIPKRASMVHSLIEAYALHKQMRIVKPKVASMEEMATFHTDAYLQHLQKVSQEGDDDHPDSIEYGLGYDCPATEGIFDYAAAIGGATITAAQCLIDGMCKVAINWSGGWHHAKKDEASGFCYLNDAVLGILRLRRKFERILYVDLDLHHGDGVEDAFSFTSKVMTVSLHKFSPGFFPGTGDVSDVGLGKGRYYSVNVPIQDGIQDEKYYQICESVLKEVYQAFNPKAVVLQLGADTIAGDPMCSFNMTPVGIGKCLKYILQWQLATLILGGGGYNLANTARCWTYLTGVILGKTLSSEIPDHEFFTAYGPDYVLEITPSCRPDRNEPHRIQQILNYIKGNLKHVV
Briefly: HDAC8 inhibitor enzymatic assay, % inhibition at fixed concentration. In kind it is biochemical. The following applies: read-out: %inhibition of HDACs at 10µM of test compound HDAC8; 10 µM compound.

A further assay deals with T2, human HDAC11 (Homo sapiens, UniProt Q96DB2).
T2 sequence (Q96DB2 1-347): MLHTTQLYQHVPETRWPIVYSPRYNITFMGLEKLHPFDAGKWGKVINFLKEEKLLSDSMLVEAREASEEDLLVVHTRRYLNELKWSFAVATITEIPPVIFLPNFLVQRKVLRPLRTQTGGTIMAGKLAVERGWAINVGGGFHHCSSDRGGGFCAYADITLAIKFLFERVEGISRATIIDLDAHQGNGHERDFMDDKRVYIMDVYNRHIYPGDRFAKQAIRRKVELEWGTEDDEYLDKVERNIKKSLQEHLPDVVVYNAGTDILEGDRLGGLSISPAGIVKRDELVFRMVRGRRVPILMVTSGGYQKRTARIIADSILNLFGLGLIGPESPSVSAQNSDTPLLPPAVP
The experiment in a line: HDAC11 inhibitor enzymatic assay, % inhibition at fixed concentration. Particulars: read-out: %inhibition of HDACs at 10µM of test compound HDAC11.

In assay [1] the test system is CCHE-45 cells (primary choroid plexus carcinoma). Briefly: Cytotoxicity assay using xCELLigence system. Format: cell-based. Particulars: for IC50: xCELLigence, 96 h exposure, mean of three replicates, read-out: CCHE-45 IC50 (µM)±SEM. The protocol: Established primary Choroid plexus carcinoma (CCHE-45) were cultured as previously described, in RPMI-1640 (Lonza, BE-12-702F) supplemented with 10% Fetal Bovine Serum (FBS, Gibco, 12483–020) and 100 U/ml penicillin and 100 µg/ml streptomycin (Lonza, DE17-602F). Cells were maintained at 37 °C in a 5% CO2 humidified atmosphere.
Cytotoxicity assay by the xCELLigence system was performed using RTCA xCELLigence DP system (ACEA Biosciences, Inc., San Diego, CA, USA) as per manufacturer’s instructions https://www.aceabio.com/products/rtca-dp/, https://www.aceabio.com/products/rtca-sp[65–68]. In brief, after setting up the instruments and blanking the wells with media, CCHE-45 cells were seeded into the 96 well E-plate (ACEA Biosciences) with a density of 20,000 cells/well. Attachment and growth of the cells were monitored every 1 h. Approximately 24 h after seeding, when the cells were in the log growth phase, the cells were exposed to a range of test compound 10a concentrations (3.125, 6.25, 12.5, 25, 50, 100, 200, 400) µM for 96 h. Controls received either medium alone, or medium + DMSO with a final concentration below of 0.5%. For each concentration, duplicates were tested. Experiments were conducted in three biological repeats. Results were analyzed using the RTCA software (Version 2.0). Data was exported and average IC50 value was analyzed.
• Based on previous pilot experiment, the highest SK114 conc. (100µM)
72hrs, thus this experiment was performed with higher concentration
• Cells were incubated with the drug for 96hrs
• Experiment was done in technical duplicates

A further assay has as its target T3, human HDAC6 (Homo sapiens, UniProt Q9UBN7).
T3 sequence (Q9UBN7 1-1215): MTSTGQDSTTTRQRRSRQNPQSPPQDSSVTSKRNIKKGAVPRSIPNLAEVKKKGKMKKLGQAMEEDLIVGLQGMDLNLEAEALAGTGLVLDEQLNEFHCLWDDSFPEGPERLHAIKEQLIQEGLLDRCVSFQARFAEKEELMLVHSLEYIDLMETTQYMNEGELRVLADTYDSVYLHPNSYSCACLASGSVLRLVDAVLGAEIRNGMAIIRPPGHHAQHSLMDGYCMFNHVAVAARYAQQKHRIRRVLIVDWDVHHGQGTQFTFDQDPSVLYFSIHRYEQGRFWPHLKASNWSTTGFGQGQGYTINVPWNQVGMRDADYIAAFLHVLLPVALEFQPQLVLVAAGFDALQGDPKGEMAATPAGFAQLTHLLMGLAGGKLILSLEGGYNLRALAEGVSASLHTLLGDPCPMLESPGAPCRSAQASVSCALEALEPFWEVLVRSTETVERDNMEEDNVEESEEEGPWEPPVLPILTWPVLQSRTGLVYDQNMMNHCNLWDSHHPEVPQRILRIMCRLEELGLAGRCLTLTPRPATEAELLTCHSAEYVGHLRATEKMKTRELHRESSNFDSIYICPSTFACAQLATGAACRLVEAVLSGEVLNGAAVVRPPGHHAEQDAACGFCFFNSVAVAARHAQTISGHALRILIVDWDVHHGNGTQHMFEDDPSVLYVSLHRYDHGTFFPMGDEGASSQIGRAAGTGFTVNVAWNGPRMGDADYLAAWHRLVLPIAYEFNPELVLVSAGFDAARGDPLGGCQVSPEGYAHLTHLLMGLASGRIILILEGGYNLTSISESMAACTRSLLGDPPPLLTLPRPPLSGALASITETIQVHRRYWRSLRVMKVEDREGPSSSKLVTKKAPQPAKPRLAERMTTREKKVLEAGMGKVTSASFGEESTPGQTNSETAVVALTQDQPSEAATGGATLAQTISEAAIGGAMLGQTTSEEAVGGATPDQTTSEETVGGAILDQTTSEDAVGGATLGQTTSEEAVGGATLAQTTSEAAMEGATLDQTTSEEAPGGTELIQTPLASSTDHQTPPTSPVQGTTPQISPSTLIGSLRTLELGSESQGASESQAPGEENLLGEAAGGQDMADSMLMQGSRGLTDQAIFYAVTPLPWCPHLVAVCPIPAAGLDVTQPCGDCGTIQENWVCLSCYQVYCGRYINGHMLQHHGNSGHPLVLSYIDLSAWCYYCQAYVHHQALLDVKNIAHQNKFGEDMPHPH
The experiment in a line: HDAC6 inhibitor enzymatic assay, % inhibition at fixed concentration. The following applies: read-out: %inhibition of HDACs at 10µM of test compound HDAC6.

Read-outs that look alike come from different tables or passages of the source.

As to `O=C(CCCSc1nc2ccccc2n1Cc1ccccc1)NO` [Compound 10a, 4-((1-benzyl-1H-benzo[d]imidazol-2-yl)thio)-N-hydroxybutanamide], the inhibition at 10 µM at human HDAC8 stood at 56%; at human HDAC11, 6%; on human HDAC6 it was 92%. Moreover, the “effect on cell index of CCHE-45, pilot experiment” value in assay [1] (100 µM (highest conc.), 72 hrs) is “lowered cell index and induced cell death”. Further, the “effect on cell index (CI) of CCHE-45” value in assay [1] (100 µM, after 24 h from addition of the drug) was “reduced CI to half the maximum CI”; in assay [1] (400 µM or 200 µM, monitoring for 96 h) it was “quick and dramatic reduction in cell index”. Also, the IC50 in assay [1] (96 h) came to 113 µM; in assay [1], 113 ± 11.1 µM.

The term inhibition denotes the share of the control response that was lost under treatment. What is called IC50 is the concentration needed to halve the response being measured.
